The supplement of paper PMC10307832

Key:
Test in all cases: relative viability (nuclei count vs DMSO), 5 days (fraction); higher = more cells survive
[1] = test system: NCI-H1648
Outline: (§1)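 The day after seeding in 1536-well plates, lung cancer cell lines were treated by pin tool with a single drug, or with a fixed anchor-drug dose together with five library-drug doses (not always all listed) in √10 steps. After 5 days, a combined fix-and-stain solution (final 0.05% Triton X-100, 1% formaldehyde, 1 ug/ml Hoechst) was added. Nuclei counted on 4× images gave relative viability as treated counts over vehicle counts, reported as the median of duplicate plates.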

[2] = test system: NCI-H2009
Outline: as §1

[3] = test system: HCC-78
Outline: as §1

[4] = test system: NCI-H358
Outline: as §1

[5] = test system: NCI-H661
Outline: as §1

[6] = test system: EBC-1
Outline: as §1

[7] = test system: A549
Outline: as §1

[8] = test system: IA-LM
Outline: as §1

[9] = test system: NCI-H2342
Outline: as §1

[10] = test system: NCI-H460
Outline: as §1

[11] = test system: NCI-H522
Outline: as §1

[12] = test system: Calu-6
Outline: as §1

[13] = test system: NCI-H1703
Outline: as §1

[14] = test system: NCI-H1299
Outline: as §1

[15] = test system: NCI-H1623
Outline: as §1

Structure (SMILES): Cc1sc2c(c1C)C(c1ccc(Cl)cc1)=N[C@@H](CC(=O)OC(C)(C)C)c1nnc(C)n1-2 [JQ1] + O=C(c1cc(Cc2n[nH]c(=O)c3ccccc23)ccc1F)N1CCN(C(=O)C2CC2)CC1 [Olaparib] (partner 8 µM)
- relative viability ([1]; first compound 0.04 µM): 0.66
- relative viability ([1]; first compound 0.1265 µM): 1.03
- relative viability ([1]; first compound 0.4 µM): 0.462
- relative viability ([1]; first compound 1.265 µM): 0.485
- relative viability ([1]; first compound 4 µM): 0.289
- relative viability ([2]; first compound 0.04 µM): 0.689
- relative viability ([2]; first compound 0.1265 µM): 0.548
- relative viability ([2]; first compound 0.4 µM): 0.545
- relative viability ([2]; first compound 1.265 µM): 0.198
- relative viability ([2]; first compound 4 µM): 0.152
- relative viability ([3]; first compound 0.04 µM): 0.7
- relative viability ([3]; first compound 0.1265 µM): 0.693
- relative viability ([3]; first compound 0.4 µM): 0.807
- relative viability ([3]; first compound 1.265 µM): 0.581
- relative viability ([3]; first compound 4 µM): 0.494
- relative viability ([4]; first compound 0.04 µM): 0.509
- relative viability ([4]; first compound 0.1265 µM): 0.58
- relative viability ([4]; first compound 0.4 µM): 0.604
- relative viability ([4]; first compound 1.265 µM): 0.406
- relative viability ([4]; first compound 4 µM): 0.37
- relative viability ([5]; first compound 0.04 µM): 0.75
- relative viability ([5]; first compound 0.1265 µM): 0.709
- relative viability ([5]; first compound 0.4 µM): 0.781
- relative viability ([5]; first compound 1.265 µM): 0.536
- relative viability ([5]; first compound 4 µM): 0.427
- relative viability ([6]; first compound 0.04 µM): 0.74
- relative viability ([6]; first compound 0.1265 µM): 0.473
- relative viability ([6]; first compound 0.4 µM): 0.312
- relative viability ([6]; first compound 1.265 µM): 0.093
- relative viability ([6]; first compound 4 µM): 0.113
- relative viability ([7]; first compound 0.04 µM): 0.303
- relative viability ([7]; first compound 0.1265 µM): 0.213
- relative viability ([7]; first compound 0.4 µM): 0.255
- relative viability ([7]; first compound 1.265 µM): 0.102
- relative viability ([7]; first compound 4 µM): 0.045
- relative viability ([8]; first compound 0.04 µM): 0.739
- relative viability ([8]; first compound 0.1265 µM): 0.508
- relative viability ([8]; first compound 0.4 µM): 0.17
- relative viability ([8]; first compound 1.265 µM): 0.115
- relative viability ([8]; first compound 4 µM): 0.117
- relative viability ([9]; first compound 0.04 µM): 0.5
- relative viability ([9]; first compound 0.1265 µM): 0.501
- relative viability ([9]; first compound 0.4 µM): 0.476
- relative viability ([9]; first compound 1.265 µM): 0.313
- relative viability ([9]; first compound 4 µM): 0.295
- relative viability ([10]; first compound 0.04 µM): 0.43
- relative viability ([10]; first compound 0.1265 µM): 0.336
- relative viability ([10]; first compound 0.4 µM): 0.179
- relative viability ([10]; first compound 1.265 µM): 0.124
- relative viability ([10]; first compound 4 µM): 0.0676
- relative viability ([11]; first compound 0.04 µM): 0.577
- relative viability ([11]; first compound 0.1265 µM): 0.674
- relative viability ([11]; first compound 0.4 µM): 0.453
- relative viability ([11]; first compound 1.265 µM): 0.388
- relative viability ([11]; first compound 4 µM): 0.344
- relative viability ([12]; first compound 0.04 µM): 0.536
- relative viability ([12]; first compound 0.1265 µM): 0.408
- relative viability ([12]; first compound 0.4 µM): 0.511
- relative viability ([12]; first compound 1.265 µM): 0.251
- relative viability ([12]; first compound 4 µM): 0.249
- relative viability ([13]; first compound 0.04 µM): 0.458
- relative viability ([13]; first compound 0.4 µM): 0.498
- relative viability ([13]; first compound 1.265 µM): 0.236
- relative viability ([13]; first compound 4 µM): 0.234
- relative viability ([14]; first compound 0.04 µM): 0.931
- relative viability ([14]; first compound 0.1265 µM): 0.787
- relative viability ([14]; first compound 0.4 µM): 0.972
- relative viability ([14]; first compound 1.265 µM): 0.298
- relative viability ([14]; first compound 4 µM): 0.235

Structure (SMILES): CC(=O)O[C@@]12CO[C@@H]1C[C@H](O)[C@@]1(C)C(=O)[C@H](O)C3=C(C)[C@@H](OC(=O)[C@H](O)[C@@H](NC(=O)OC(C)(C)C)c4ccccc4)C[C@@](O)([C@@H](OC(=O)c4ccccc4)[C@H]21)C3(C)C [Docetaxel] + CCNC(=O)c1noc(-c2cc(C(C)C)c(O)cc2O)c1-c1ccc(CN2CCOCC2)cc1 [Luminespib] (partner 0.01 µM)
- relative viability ([2]; first compound 0.0002 µM): 0.979
- relative viability ([2]; first compound 0.000632 µM): 1.09
- relative viability ([2]; first compound 0.002 µM): 0.956
- relative viability ([2]; first compound 0.006325 µM): 0.78
- relative viability ([2]; first compound 0.02 µM): 0.261
- relative viability ([4]; first compound 0.0002 µM): 0.314
- relative viability ([4]; first compound 0.000632 µM): 0.305
- relative viability ([4]; first compound 0.002 µM): 0.135
- relative viability ([4]; first compound 0.006325 µM): 0.12
- relative viability ([4]; first compound 0.02 µM): 0.098
- relative viability ([5]; first compound 0.0002 µM): 0.782
- relative viability ([5]; first compound 0.000632 µM): 0.933
- relative viability ([5]; first compound 0.002 µM): 0.707
- relative viability ([5]; first compound 0.006325 µM): 0.432
- relative viability ([5]; first compound 0.02 µM): 0.323
- relative viability ([9]; first compound 0.0002 µM): 0.673
- relative viability ([9]; first compound 0.000632 µM): 0.677
- relative viability ([9]; first compound 0.002 µM): 0.673
- relative viability ([9]; first compound 0.006325 µM): 0.462
- relative viability ([9]; first compound 0.02 µM): 0.4
- relative viability ([10]; first compound 0.0002 µM): 0.032
- relative viability ([10]; first compound 0.002 µM): 0.0279
- relative viability ([10]; first compound 0.006325 µM): 0.025
- relative viability ([10]; first compound 0.02 µM): 0.0187
- relative viability ([11]; first compound 0.0002 µM): 1.19
- relative viability ([11]; first compound 0.000632 µM): 1.02
- relative viability ([11]; first compound 0.002 µM): 0.703
- relative viability ([11]; first compound 0.006325 µM): 0.419
- relative viability ([11]; first compound 0.02 µM): 0.357
- relative viability ([15]; first compound 0.0002 µM): 0.543
- relative viability ([15]; first compound 0.000632 µM): 0.405
- relative viability ([15]; first compound 0.002 µM): 0.455
- relative viability ([15]; first compound 0.006325 µM): 0.353
- relative viability ([15]; first compound 0.02 µM): 0.281
